# Data: patent publication US6737383B1, “Herbicidal oxadiazolidines” (priority 1999, dated 2004)
# Experiments:
# [1] = system: duck salad; assay: Test B flood test duck salad; format: in vivo, Heteranthera limosa
# Method in brief: (§1)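 Read-out is a visual response score from 0 (no effect) to 10 (complete control), assigned by comparison with untreated controls. Treatment was applied at the 2-leaf stage, and plants stayed in the greenhouse for twelve to sixteen days before scoring.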
# [2] = system: bamyardgrass; assay: Test B flood test barnyardgrass; format: in vivo, Echinochloa crus-galli
# Method in brief: as §1
# [3] = system: soybean; assay: Test B pre/postemergence soybean; format: in vivo, Glycine max
# Method in brief: (§2)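 Response is a visual 0-to-10 score relative to untreated plants, where 0 means no effect and 10 means complete control, taken twelve to sixteen days after application. Treatments went onto soil at planting and onto foliage of 1- to 4-leaf plants, using a surfactant-containing non-phytotoxic solvent.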
# [4] = system: morningglory; assay: Test B pre/postemergence morningglory; format: in vivo, Ipomoea hederacea
# Method in brief: as §2
# [5] = system: wheat; assay: Test B pre/postemergence wheat; format: in vivo, Triticum aestivum
# Method in brief: as §2
# [6] = system: rape; assay: Test B pre/postemergence rape; format: in vivo, Brassica napus
# Method in brief: as §2
# [7] = system: pigweed; assay: Test B pre/postemergence pigweed; format: in vivo, Amaranthus retroflexus
# Method in brief: as §2
# [8] = system: velvetleaf; assay: Test B pre/postemergence velvetleaf; format: in vivo, Abutilon theophrasti
# Method in brief: as §2
# [9] = system: blackgrass; assay: Test B pre/postemergence blackgrass; format: in vivo, Alopecurus myosuroides
# Method in brief: as §2
# [10] = system: corn; assay: Test B pre/postemergence corn; format: in vivo, Zea mays
# Method in brief: as §2
# [11] = system: sugar beet; assay: Test B pre/postemergence sugar beet; format: in vivo, Beta vulgaris
# Method in brief: as §2
# [12] = system: surinam grass; assay: Test B pre/postemergence surinam grass; format: in vivo, Brachiaria decumbens
# Method in brief: as §2
# [13] = system: rice; assay: Test B flood test rice; format: in vivo, Oryza sativa
# Method in brief: as §1
# [14] = system: giant foxtail; assay: Test B pre/postemergence giant foxtail; format: in vivo, Setaria faberii
# Method in brief: as §2
# [15] = system: smallflower flatsedge; assay: Test B flood test smallflower flatsedge; format: in vivo, Cyperus difformis
# Method in brief: as §1
# [16] = system: crabgrass; assay: Test B pre/postemergence crabgrass; format: in vivo, Digitaria sanguinalis
# Method in brief: as §2
# [17] = system: purple nutsedge; assay: Test B pre/postemergence purple nutsedge; format: in vivo, Cyperus rotundus
# Method in brief: as §2
# [18] = system: wild oat; assay: Test B pre/postemergence wild oat; format: in vivo, Avena fatua
# Method in brief: as §2
# [19] = system: cocklebur; assay: Test B pre/postemergence cocklebur; format: in vivo, Xanthium strumarium
# Method in brief: as §2
# [20] = Rate 62 g/ha, flood test species, Pre-emergence, visual evaluation after twelve to sixteen days
# [21] = Rate 125 g/ha, under heading Pre-emergence, flood test species, visual evaluation after twelve to sixteen days
# [22] = Rate 250 g/ha, Pre-emergence (flood test species), scale 0 to 10, 0 is no effect, 10 is complete control
# [23] = Rate 500 g/ha, Pre-emergence section of Table B, 0 to 10 scale (0 no effect, 10 complete control)
# [24] = Postemergence, Rate 62 g/ha, scale 0 to 10, 0 is no effect, 10 is complete control
# [25] = Postemergence, Rate 125 g/ha, scale of 0 to 10 where 0 is no effect and 10 is complete control
# [26] = Postemergence, Rate 250 g/ha, scale of 0 to 10, 0 is no effect, 10 is complete control
# [27] = Postemergence, Rate 500 g/ha, scale of 0 to 10 where 0 is no effect and 10 is complete control
# [28] = Preemergence, Rate 62 g/ha, scale 0 to 10 (0 no effect, 10 complete control)
# [29] = Preemergence, Rate 125 g/ha, scale of 0 to 10 where 0 is no effect and 10 is complete control
# [30] = Preemergence, Rate 500 g/ha, scale of 0 to 10 where 0 is no effect and 10 is complete control
smiles,measurement,setting,value
CC(C)N(C(=O)n1oc(=O)n(CC(C)[N+](=O)[O-])c1=O)c1ccc(F)cc1F (centres unmarked) [Compound 603],"Plant response rating, Ducksalad (0 to 10 scale, 0 is no effect, 10 is complete control)",[1]; [20],0
same,"Ducksalad plant response rating (0 to 10 scale, 0 is no effect, 10 is complete control)",[1]; [21],0
same,Ducksalad plant response rating,[1]; [22],0
same,Ducksalad plant response rating,[1]; [23],0
same,"Plant response rating, Barnyardgrass (0 to 10 scale, 0 is no effect, 10 is complete control)",[2]; [20],0
same,"Barnyardgrass plant response rating (0 to 10 scale, 0 is no effect, 10 is complete control)",[2]; [21],0
same,Barnyardgrass plant response rating,[2]; [22],0
same,Barnyardgrass plant response rating,[2]; [23],0
same,"Plant response rating, Soybean",[3]; [24],0
same,"Plant response rating, Soybean",[3]; [25],0
same,Soybean plant response rating,[3]; [26],2
same,"Plant response rating, Soybean",[3]; [27],2
same,Soybean plant response rating,[3]; [28],0
same,Soybean plant response rating,[3]; [29],0
same,"Plant response rating, Soybean",[3]; [30],0
same,"Plant response rating, Morningglory",[4]; [24],0
same,"Plant response rating, Morningglory",[4]; [25],0
same,Morningglory plant response rating,[4]; [26],2
same,"Plant response rating, Morningglory",[4]; [27],3
same,Morningglory plant response rating,[4]; [28],0
same,Morningglory plant response rating,[4]; [29],0
same,"Plant response rating, Morningglory",[4]; [30],0
same,"Plant response rating, Wheat",[5]; [24],0
same,"Plant response rating, Wheat",[5]; [25],0
same,Wheat plant response rating,[5]; [26],0
same,"Plant response rating, Wheat",[5]; [27],0
same,Wheat plant response rating,[5]; [28],0
same,Wheat plant response rating,[5]; [29],0
same,"Plant response rating, Wheat",[5]; [30],0
same,"Plant response rating, Rape",[6]; [24],0
same,"Plant response rating, Rape",[6]; [25],0
same,Rape plant response rating,[6]; [26],0
same,"Plant response rating, Rape",[6]; [27],0
same,Rape plant response rating,[6]; [28],0
same,Rape plant response rating,[6]; [29],0
same,"Plant response rating, Rape",[6]; [30],0
same,"Plant response rating, Redroot pigweed",[7]; [24],0
same,"Plant response rating, Redroot pigweed",[7]; [25],0
same,Redroot pigweed plant response rating,[7]; [26],0
same,"Plant response rating, Redroot pigweed",[7]; [27],0
same,Redroot pigweed plant response rating,[7]; [28],0
same,Redroot pigweed plant response rating,[7]; [29],0
same,"Plant response rating, Redroot pigweed",[7]; [30],0
same,"Plant response rating, Velvetleaf",[8]; [24],0
same,"Plant response rating, Velvetleaf",[8]; [25],0
same,Velvetleaf plant response rating,[8]; [26],0
same,"Plant response rating, Velvetleaf",[8]; [27],2
same,Velvetleaf plant response rating,[8]; [28],0
same,Velvetleaf plant response rating,[8]; [29],0
same,"Plant response rating, Velvetleaf",[8]; [30],0
same,"Plant response rating, Blackgrass",[9]; [24],0
same,"Plant response rating, Blackgrass",[9]; [25],0
same,Blackgrass plant response rating,[9]; [26],0
same,"Plant response rating, Blackgrass",[9]; [27],0
same,Blackgrass plant response rating,[9]; [28],0
same,Blackgrass plant response rating,[9]; [29],0
same,Blackgrass plant response rating (0 to 10 scale),"[9]; Preemergence, Rate 250 g/ha",0
same,Blackgrass plant response rating,[9]; [30],0
same,"Plant response rating, Corn",[10]; [24],0
same,"Plant response rating, Corn",[10]; [25],0
same,Corn plant response rating,[10]; [26],0
same,"Plant response rating, Corn",[10]; [27],0
same,Corn plant response rating,[10]; [28],0
same,Corn plant response rating,[10]; [29],0
same,Corn plant response rating (0 to 10 scale),"[10]; Preemergence, Rate 250 g/ha",0
same,"Plant response rating, Corn",[10]; [30],0
same,"Plant response rating, Sugarbeets",[11]; [24],0
same,"Plant response rating, Sugarbeets",[11]; [25],0
same,Sugarbeets plant response rating,[11]; [26],0
same,"Plant response rating, Sugarbeets",[11]; [27],0
same,Sugarbeets plant response rating,[11]; [28],0
same,Sugarbeets plant response rating,[11]; [29],0
same,"Plant response rating, Sugarbeets",[11]; [30],0
same,"Plant response rating, B. signalgrass",[12]; [24],0
same,"Plant response rating, B. signalgrass",[12]; [25],0
same,B. signalgrass plant response rating,[12]; [26],0
same,"Plant response rating, B. signalgrass",[12]; [27],0
same,B. signalgrass plant response rating,[12]; [28],0
same,B. signalgrass plant response rating,[12]; [29],0
same,"B. signalgrass plant response rating (0 to 10 scale, 0 is no effect, 10 is complete control)","[12]; Preemergence, Rate 250 g/ha",0
same,B. signalgrass plant response rating,[12]; [30],0
same,"Plant response rating, Rice (0 to 10 scale, 0 is no effect, 10 is complete control)",[13]; [20],0
same,"Rice plant response rating (0 to 10 scale, 0 is no effect, 10 is complete control)",[13]; [21],0
same,Rice plant response rating,[13]; [22],0
same,Rice plant response rating,[13]; [23],0
same,"Plant response rating, Giant foxtail",[14]; [24],0
same,"Plant response rating, Giant foxtail",[14]; [25],0
same,Giant foxtail plant response rating,[14]; [26],0
same,"Plant response rating, Giant foxtail",[14]; [27],0
same,Giant foxtail plant response rating,[14]; [28],0
same,Giant foxtail plant response rating,[14]; [29],0
same,"Plant response rating, Giant foxtail",[14]; [30],0
same,"Plant response rating, S. Flatsedge (0 to 10 scale, 0 is no effect, 10 is complete control)",[15]; [20],0
same,"S. Flatsedge plant response rating (0 to 10 scale, 0 is no effect, 10 is complete control)",[15]; [21],0
same,S. Flatsedge plant response rating,[15]; [22],0
same,S. Flatsedge plant response rating,[15]; [23],0
same,"Plant response rating, Crabgrass",[16]; [24],0
same,"Plant response rating, Crabgrass",[16]; [25],0
same,Crabgrass plant response rating,[16]; [26],0
same,"Plant response rating, Crabgrass",[16]; [27],0
same,Crabgrass plant response rating,[16]; [28],0
same,Crabgrass plant response rating,[16]; [29],0
same,"Plant response rating, Crabgrass",[16]; [30],0
same,"Plant response rating, Nutsedge",[17]; [24],0
same,"Plant response rating, Nutsedge",[17]; [25],0
same,Nutsedge plant response rating,[17]; [26],0
same,"Plant response rating, Nutsedge",[17]; [27],0
same,Nutsedge plant response rating,[17]; [28],0
same,Nutsedge plant response rating,[17]; [29],0
same,"Plant response rating, Nutsedge",[17]; [30],0
same,"Plant response rating, Wild oats",[18]; [24],0
same,"Plant response rating, Wild oats",[18]; [25],0
same,Wild oats plant response rating,[18]; [26],0
same,"Plant response rating, Wild oats",[18]; [27],0
same,Wild oats plant response rating,[18]; [28],0
same,Wild oats plant response rating,[18]; [29],0
same,"Plant response rating, Wild oats",[18]; [30],0
same,"Plant response rating, Cocklebur",[19]; [24],0
same,"Plant response rating, Cocklebur",[19]; [25],0
same,Cocklebur plant response rating,[19]; [26],0
same,"Plant response rating, Cocklebur",[19]; [27],0
same,Cocklebur plant response rating,[19]; [28],0
same,Cocklebur plant response rating,[19]; [29],0
same,Cocklebur plant response rating (0 to 10 scale),"[19]; Preemergence, Rate 250 g/ha",0
same,"Plant response rating, Cocklebur",[19]; [30],0
